This note sets out measurements from patent publication US6858428B2, “Human and animal cell culture medium containing antithrombin III for suppressing cell death” (Agency of Industrial Science and Technology, priority 1999, dated 2005).

The subject of the test is hepatoma cell line HepG2. The test is described as follows: Survival of hepatoma cell line HepG2 in serum-free culture (viable cell count after 3 days). The test is classed as cell-based. To be noted: for Survival rate: HepG2, DMEM without fetal bovine serum; for Effect in controlling cell death (in words): HepG2, serum-free medium, concentration not given. As to the method:
Two mL cell suspension of hepatoma cell line HepG2 dispersed in trypsin (5×10^5 cells) were inoculated on six multi-well plates and pre-culture by using Dulbecco's modified Eagle medium (DMEM) containing 5% fetal bovine serum, 1.6 g/L sodium hydrogencarbonate, 0.584 g/L L-glutamine, and 0.08 g/L kanamycin sulfate at 37° C. in a 5% CO2 gas phase. […] The viable cell count was assayed after 3 days of culture.
The hepatoma cell line HepG2 was pre-cultured in the same manner as in Example 1. After 1 day, the broth was recovered, the cell surfaces were washed with serum-free medium, and the culture was continued for another 3 days with the addition of medium containing 5%, 0% fetal bovine serum, or 2 mL of fresh medium comprising antithrombin III added in concentrations ranging from 1 to 25 μg/mL to media containing no fetal bovine serum (0%). The viable cell count was assayed after 3 days of culture.
The hepatoma cell line HepG2 was pre-cultured in the same manner as in Example 1. After 1 day, the broth was recovered, the cell surfaces were washed with serum-free medium, and the culture was continued for another 3 days with the addition of medium containing 5%, 0% fetal bovine serum, or 2 mL of fresh medium comprising antithrombin III or any of-various synthetic protease inhibitors given in Table 4 added to media containing no fetal bovine serum (0%). The viable cell count was assayed after 3 days of culture.

As for `NCCc1ccc(S(=O)(=O)F)cc1` [AEBSF, reference compound], the “Effect in controlling cell death (in words)” value (“Effect” for short) is on record as “effective in controlling cell death”. For the setting “additive 50 μg/ml”, this molecule came in with a Survival rate of 92.2%.

As to “PDGF-AA: growth factor reported as survival factor”, where the note is “additive 50 ng/ml”, the Survival rate worked out at 54.0%.

“Transferrin: typical serum protein used for comparison”: the “Effect” value is recorded as “virtually no effect in controlling cell death”. Further, under “additive 150 μg/ml”, the Survival rate stood at 62.8%.

Consider `N=C(N)c1ccc(CS(=O)(=O)F)cc1` [APMSF, reference compound], for which the Survival rate (additive 40 μg/ml) stood at 74.0%.

Consider “α 1-antitrypsin: typical serum protein used for comparison”, for which the “Effect” value is reported as “virtually no effect in controlling cell death”. Besides, where the note is “additive 150 μg/ml”, the Survival rate stood at 72.7%.

Molecule “IGF-1: growth factor reported as survival factor” returned a Survival rate (additive 50 ng/ml) of 45.3%.

Consider “aFGF: growth factor reported as survival factor”, for which the Survival rate (additive 10 ng/ml) worked out at 59.6%.

As to `CC(=O)N[C@@H](CC(C)C)C(=O)N[C@@H](CC(C)C)C(=O)N[C@H](C=O)CCCNC(=N)N` [Leupeptin, reference compound], the Survival rate (additive 0.5 μg/ml) amounted to 65.5%.

“Insulin: hormone reported as survival factor” gave a Survival rate (additive 0.1 μM) of 53.0%.

With “bFGF: growth factor reported as survival factor”, the Survival rate (additive 10 ng/ml) is 55.2%.

As for `Cc1ccc(S(=O)(=O)N[C@@H](CCCCN)C(=O)CCl)cc1` [TLCK, reference compound], the “Effect” value is on record as “effective in controlling cell death”. For the same molecule, the Survival rate (additive 50 μg/ml) came to 89.3%.

Take “Orosomucoide: typical serum protein used for comparison”: the “Effect” value is “virtually no effect in controlling cell death”. This molecule also had a Survival rate (additive 48.8 μg/ml) of 61.5%.
